Type in all cases: biochemical
Experiment [1] addresses T1, human manganese superoxide dismutase (hMn SOD), wild type, SEQ ID NO:2 (Homo sapiens, UniProt P04179).
T1 construct: where it is then cleaved off leaving the mature protein
T1 sequence (P04179 25-222): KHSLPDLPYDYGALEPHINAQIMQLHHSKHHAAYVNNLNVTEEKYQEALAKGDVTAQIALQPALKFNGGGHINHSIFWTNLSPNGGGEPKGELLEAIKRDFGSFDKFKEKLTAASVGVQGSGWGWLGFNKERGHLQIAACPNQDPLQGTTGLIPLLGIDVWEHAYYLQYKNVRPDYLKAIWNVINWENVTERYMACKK
Put plainly: Disproportionation of superoxide by wild type hMnSOD, Example 3 (Tables 4 and 5), 20° C. How it is done: (§1) Experiments were based on the stabilization of KO2 in aprotic solvent and the subsequent large dilution of this solution by an aqueous solution of enzyme in a stopped-flow apparatus, as described by McClune and Fee (1978). KO2 was dissolved in a mixture of dimethyl sulfoxide and […] (2:1 by volume; Aldrich, spectrophotometric grade) with solubility of KO2 enhanced with 18-crown-6 (Valentine and Curtis, 1975). The stopped-flow spectrophotometer (Kinetic Instruments, Ann Arbor, Mich.) was capable of efficient mixing of this solution with an acqueous solution of enzyme in buffer with a dead time between 1.5 and 2.0 ms. One drive syringe (capacity 50 μl) contained the aprotic solution of O2. This was diluted fifty-fold by the contents of a second syringe (capacity 2.5 ml) which contained enzyme, EDTA, and buffer. The decay of superoxide in initial velocity experiments and progress curves was monitored by its absorption at 250 to 300 nm. Stopped-flow experiments were carried out at […]. Four or more kinetic traces were averaged to reduce noise. Steady-state parameters were obtained by least-squares analysis of such data (Leatherbarrow (1987) "Enzfitter: a nonlinear regression data analysis program for the IBM PC" Elsevier BIOSOFT, Cambridge).
(§2) In the present study, several novel hMnSOD proteins containing substitutions of His 30 (referring to the amino acid sequence of SEQ ID NO:2) were prepared by PCR site directed mutagenesis and purified by column chromatography, as described in the Materials and Methods section above, and as also described by Hsu et al. (1996) J. Biol. Chem. 271: 1768; and Hsieh et al. (1998) Biochemistry 37: 4731. In particular, His 30 was substituted with each of Ala, Asn, Ser and Gln. The resulting novel hMnSOD proteins containing a His 30 substitution were then assayed for enzymatic activity and product inhibition at 20° C. by measuring the absorbance of superoxide at 250 nm using stopped-flow spectrophotometry, as described above in the Materials and Methods section. […]

The target of experiment [2] is T2, human manganese superoxide dismutase (hMn SOD) variant Y34F (Tyr 34 replaced by Phe) (Homo sapiens, UniProt P04179, Y58F).
T2 construct: as a mature protein tagged with an extra Met at the amino terminus; made in house; host or cells: E. coli QC774 (SodA/SodB mutant), pTrc99A
T2 sequence (P04179 25-222 Y58F): T1 sequence (P04179 25-222) with Y34F
In words: Decay of superoxide catalyzed by Y34F hMnSOD, pulse radiolysis. On the procedure:
Experiments were carried out at the Center for Fast Kinetics Research at the University of Texas at Austin using a 4-Mev van der Graaff accelerator. A single high-dose electron pulse was used to generate superoxide radical anions from oxygen in acqueous solutions containing 10 mM sodium formate as hydroxyl radical scavenger (Schwartz, 1981) and 50 μM EDTA in addition to buffer and enzyme. All pulse radiolysis experiments were carried out at 20 ° C. The dismutation of O2^- was followed spectrophotometrically from its absorbance at 250 nm (ε=2000M^1 cm^1, Rabani and Nielson, 1969) with a path length of 2.5 cm. Progress curves for each set of 6 to 9 experiments were averaged. Exposure to ultraviolet radiation was minimized by opening a mechanical shutter a fraction of a second before each pulse.
The kinetic mechanism of FIG. 8 used to describe the wild-type MnSOD can also describe catalysis by Y34F Mn SOD (FIG. 7), as shown by pulse radiolysis. […] In this stimulation, the breakdown of the enzyme-substrate complex for enzyme in the reduced state, represented by k3 in the scheme of FIG. 8, is much slower for Y34F compared with wild-type, whereas the values of k3 are the same for both enzymes. […] The rate constants in Y34F for actual formation of the dead-end complex itself, k5 and k5 are quite similar to those for wild-type.

Experiment [3] addresses T3, human manganese superoxide dismutase (hMn SOD) variant H30S (His 30 replaced by Ser) (Homo sapiens, UniProt P04179, H54S).
T3 construct: as a mature protein tagged with an extra Met at the amino terminus; made in house
T3 sequence (P04179 25-222 H54S): T1 sequence (P04179 25-222) with H30S
Put plainly: Disproportionation of superoxide by H30S hMnSOD, stopped-flow, 20° C. As to conditions: pH 9.6, 20° C. How it is done:
as §1, §2

For experiment [4], the target named is T4, human manganese superoxide dismutase (hMn SOD) variant H30Q (His 30 replaced by Gln) (Homo sapiens, UniProt P04179, H54Q).
T4 construct: as a mature protein tagged with an extra Met at the amino terminus; made in house
T4 sequence (P04179 25-222 H54Q): T1 sequence (P04179 25-222) with H30Q
Put plainly: Disproportionation of superoxide by H30Q hMnSOD, stopped-flow, 20° C. As to conditions: pH 9.6, 20° C. On the procedure:
as §1, §2

[5] abbreviates: Table 4, 20° C., pH 9.4 per footnote.
The mark [6] stands for this setting: Table 1, pulse radiolysis, 20° C., pH 9.6 (Guan et al., 1997).
[7] abbreviates: Table 3, KINSIM fit to pulse radiolysis data, 20° C., pH 9.6.

Numbering of substitutions follows the chain as printed.

Take `[O]O` [superoxide]: in experiment [1] (setting [5]), the kcat amounted to 40 ms^.1 and the “kcat /Km” value was determined as 800 μM^.1 S^.1. In addition, in experiment [1] (Table 5, pH 9.6, 20° C.), the “ko /[E] (rate constant for the zero-order region of catalysis)” value (“ko /[E]” below) stood at 500 S^.1. Moreover, in experiment [2] (setting [6]), the kcat came out at 3.3 ms^-1 and the kcat /km is 870 µM⁻¹ s⁻¹. In experiment [2] (setting [7]), this compound came in with a k1 of 1000 s⁻¹, a k2 of 5000 s⁻¹, a k4 of 1000 M⁻¹ s⁻¹ and a k5 of 200 s⁻¹. Moreover, in experiment [2] (setting [7]), the k-1 came to 2e+09 M⁻¹ s⁻¹, the k-3 came out at 2e+09 M⁻¹ s⁻¹, the k-4 stood at 10000 s⁻¹ and the k-5 is 2 × 10^4. In experiment [2] (approximate value), the “kcat /km (diffusion controlled)” value was ~10^9 M^-1 s^-1. In addition, the Km in experiment [2] (obtained from Table 3 data and eqs 5-9 of Bull et al. (1991)) turned out to be 4 µM. In experiment [3] (Table 4), the kcat is on record as 1.8 ms^.1 and the “kcat /Km” value is listed as 170 μM^.1 S^.1. Also, in experiment [3] (Table 5), the “ko /[E]” value is 1,000 S^.1. In experiment [4] (Table 4), the kcat came to 1.0 ms^.1 and the “kcat /Km” value stood at 43 μM^.1 S^.1. In experiment [4] (Table 5), the “ko /[E]” value is recorded as 510 S^.1.

A word on the Km: it is the concentration of substrate that gives half-maximal velocity.

The record behind these values is patent US6107070A, “Human manganese superoxide dismutase proteins” (University of Florida, priority 1998, dated 2000).
